The values below come from PubChem BioAssay (NCI).

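In this assay, cells in 96-well plates receive the compound at five concentrations for 48 hours. Endpoints are linearly interpolated between the surrounding concentrations. Here, GI50 denotes the concentration required for 50% inhibition of growth. TGI marks complete inhibition of growth.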

Some test systems named below: HCC-2998 colon; M14 melanoma; DU-145 prostate; MDA-MB-435; SW-620 colon; HL-60(TB) leukemia; 786-0 renal; K-562 leukemia; COLO 205 colon; LOX IMVI melanoma.
Holding throughout (experiment): growth of human tumour cells (NCI), 48 h

In the case of `N#Cc1cnc(Nc2cc(NC[C@H]3CNCCO3)c(C(F)(F)F)cn2)cn1`, the GI50 was 6840 nM in the test with HCC-2998 colon; 388 nM in the test on M14 melanoma; 8070 nM in the test with DU-145 prostate; 3560 nM in the test on MDA-MB-435; 18100 nM in the test on SW-620 colon; 2150 nM in the test with HL-60(TB) leukemia. Besides, the GI50 in the test with 786-0 renal is 668 nM; in the test on K-562 leukemia it was 3190 nM; in the test with COLO 205 colon, 9610 nM; in the test with LOX IMVI melanoma, 7150 nM. Besides, the TGI in the test on HCC-2998 colon stood at 30200 nM; in the test on M14 melanoma, 16700 nM; in the test with DU-145 prostate it was 40200 nM; in the test with MDA-MB-435, 27200 nM; in the test on SW-620 colon, 73800 nM; with HL-60(TB) leukemia it was 15400 nM. For the same molecule, the TGI in the test on 786-0 renal came out at 29000 nM; in the test on K-562 leukemia, 22100 nM; with COLO 205 colon, 23600 nM; with LOX IMVI melanoma, 24200 nM.

As to `CC(=O)[C@H]1CCC/C=C/[C@@H]2C[C@H](O)C[C@H]2[C@H](O)/C=C/C(=O)O1`, the GI50 in the test with HCC-2998 colon was 1330 nM; in the test with M14 melanoma, 467 nM; in the test with DU-145 prostate, 2990 nM; in the test on MDA-MB-435, 428 nM; in the test on SW-620 colon it was 344 nM; with HL-60(TB) leukemia, 261 nM. Moreover, the GI50 in the test on 786-0 renal was 193 nM; in the test with K-562 leukemia it was 579 nM; with COLO 205 colon, 264 nM; in the test with LOX IMVI melanoma it was 212 nM. Further, the TGI in the test on HCC-2998 colon is 5070 nM; in the test with M14 melanoma, more than 25200 nM; with DU-145 prostate, more than 100000 nM; with MDA-MB-435 it was more than 100000 nM; in the test on SW-620 colon it was 1560 nM; in the test on HL-60(TB) leukemia, 712 nM. Also, the TGI was 392 nM in the test with 786-0 renal, more than 100000 nM with K-562 leukemia, 631 nM with COLO 205 colon and 633 nM in the test with LOX IMVI melanoma.

On to `CCCCCC/C=C\CCCCCCCCCC1=C(CN2CCN(C)CC2)C(=O)C=C(OC)C1=O`, for which the TGI in the test with HCC-2998 colon was found to be 23800 nM; in the test on M14 melanoma it was 7730 nM; in the test with DU-145 prostate, 26200 nM; in the test on MDA-MB-435 it was 21100 nM; in the test on SW-620 colon, 3380 nM; in the test with HL-60(TB) leukemia it was 2970 nM. The TGI with 786-0 renal amounted to 2900 nM; in the test with K-562 leukemia it was 6320 nM; in the test on COLO 205 colon it was 3370 nM; with LOX IMVI melanoma it was 9790 nM.

Take `C=CCC(N[C@H](CO)c1ccccc1)c1cn(Cc2ccccc2Cl)c(=O)n(Cc2ccccc2Cl)c1=O` (some centres undefined): the GI50 in the test with HCC-2998 colon is 10700 nM; in the test on M14 melanoma, 6190 nM; in the test with DU-145 prostate, 23500 nM; in the test on MDA-MB-435 it was 15900 nM; with SW-620 colon, 24300 nM; in the test with HL-60(TB) leukemia, 5870 nM. Also, the GI50 with 786-0 renal was 12700 nM; with K-562 leukemia, 6780 nM; in the test on COLO 205 colon, 14700 nM; with LOX IMVI melanoma it was 6270 nM. For the same molecule, the TGI in the test on HCC-2998 colon is 27300 nM; in the test on M14 melanoma, 23100 nM; in the test on DU-145 prostate, 95500 nM; in the test with MDA-MB-435, 38600 nM; with SW-620 colon it was more than 100000 nM; in the test with HL-60(TB) leukemia, 34000 nM. Besides, the TGI with 786-0 renal was determined as 64100 nM; in the test on K-562 leukemia, 40700 nM; in the test on COLO 205 colon it was 86800 nM; in the test with LOX IMVI melanoma, 19000 nM.

Take `CN1CCN(Cc2ccc(NC(=O)c3cncc(C#Cc4cnc(N)c5cccnc45)c3)cc2C(F)(F)F)CC1`: the GI50 was 484 nM with HCC-2998 colon; 143 nM in the test with M14 melanoma; 309 nM in the test on DU-145 prostate; 150 nM in the test on MDA-MB-435; 262 nM in the test with SW-620 colon; 223 nM with HL-60(TB) leukemia. Further, the GI50 in the test with 786-0 renal is 1260 nM; in the test with K-562 leukemia it was 5 nM; in the test on COLO 205 colon, 95.6 nM; with LOX IMVI melanoma, 159 nM. In addition, the TGI in the test on HCC-2998 colon was more than 50000 nM; in the test with M14 melanoma it was 604 nM; with DU-145 prostate, more than 50000 nM; in the test with SW-620 colon, 2900 nM; with HL-60(TB) leukemia, 1170 nM; with 786-0 renal it was more than 50000 nM. For the same molecule, the figures for the TGI in the test with K-562 leukemia, in the test with COLO 205 colon and in the test with LOX IMVI melanoma were more than 50000 nM, 1120 nM and 686 nM, respectively.

As for `COc1ccc(/C=C2/SC(Nc3nc(-c4nc(NC5=NC(=O)/C(=C\c6ccc(OC)cc6)S5)sc4C)c(C)s3)=NC2=O)cc1`, the GI50 was 820 nM with HCC-2998 colon; 499 nM in the test with M14 melanoma; 2430 nM in the test on DU-145 prostate; 143 nM in the test with MDA-MB-435; 1310 nM with SW-620 colon; 397 nM in the test on HL-60(TB) leukemia. Also, the GI50 in the test on 786-0 renal is 1070 nM; in the test on K-562 leukemia, 631 nM; in the test on COLO 205 colon, 2420 nM; with LOX IMVI melanoma, 935 nM. For the same molecule, the TGI was 3660 nM in the test with HCC-2998 colon; 2360 nM in the test on M14 melanoma; more than 19700 nM with DU-145 prostate; 633 nM in the test with MDA-MB-435; more than 50000 nM in the test on SW-620 colon; more than 21900 nM with HL-60(TB) leukemia. Besides, the TGI in the test on 786-0 renal was 4180 nM; in the test on K-562 leukemia, more than 16200 nM; in the test with COLO 205 colon it was more than 50000 nM; with LOX IMVI melanoma, 9270 nM.

For `CO[C@H]1CC(O[C@@H]2/C(C)=C/C[C@@H]3C[C@@H](C[C@]4(CC[C@H](C)[C@@H](C5CCCCC5)O4)O3)OC(=O)[C@@H]3C=C(C)/C(=N/O)[C@H]4OC/C(=C\C=C\[C@@H]2C)[C@]43O)O[C@@H](C)C1O` (some centres undefined), the GI50 in the test with HCC-2998 colon is 831 nM; in the test on M14 melanoma it was 1500 nM; in the test with DU-145 prostate, 833 nM; with MDA-MB-435, 1050 nM; with SW-620 colon it was 777 nM; in the test on HL-60(TB) leukemia, 1010 nM. Further, the GI50 in the test with 786-0 renal is 1140 nM; in the test on K-562 leukemia, 1170 nM; with COLO 205 colon, 930 nM; in the test with LOX IMVI melanoma it was 651 nM. Moreover, the TGI in the test with HCC-2998 colon was found to be 1570 nM; with M14 melanoma, 4620 nM; in the test on DU-145 prostate, 1620 nM; in the test with MDA-MB-435, 2410 nM; in the test on SW-620 colon, 1500 nM; with HL-60(TB) leukemia, 2270 nM. Moreover, the TGI was determined as 2620 nM with 786-0 renal, 2670 nM in the test on K-562 leukemia, 1800 nM in the test on COLO 205 colon and 1280 nM with LOX IMVI melanoma.

`O=C(c1ccc(Cl)cc1)C(O)c1ccc(Cl)cc1` (centres undefined): the TGI was more than 100000 nM in the test with HCC-2998 colon; more than 100000 nM in the test with M14 melanoma; more than 100000 nM with DU-145 prostate; more than 100000 nM in the test with MDA-MB-435; more than 100000 nM with SW-620 colon; 82700 nM with HL-60(TB) leukemia. Also, the TGI with 786-0 renal, with K-562 leukemia, in the test on COLO 205 colon and with LOX IMVI melanoma was more than 100000 nM in each case.
